From DBAASP
Converted amounts (≈) assume the structure as drawn.

How the values were obtained:
Assay in all cases: ≥ marks a high value that may be exact or a test limit, other limits are often not marked, values filed in µg/mL are converted to µM
[1] = system: Staphylococcus aureus ATCC 43300
[2] = system: Staphylococcus aureus ATCC 29213
[3] = system: Pseudomonas aeruginosa ATCC 27853
[4] = system: Candida albicans ATCC 90028
[5] = system: Escherichia coli ATCC 25922
[6] = system: Escherichia coli
[7] = system: Bacillus subtilis
[8] = system: Staphylococcus aureus
[9] = system: Klebsiella pneumoniae ATCC 700603
[10] = system: Staphylococcus epidermidis ATCC 12228
[11] = system: Candida albicans ATCC 2002
[12] = system: Staphylococcus aureus ATCC 25923
[13] = system: Pseudomonas aeruginosa PAO1
[14] = system: Escherichia coli UB1005

SMILES: CC(C)C[C@H](NC(=O)[C@H](CCCCN)NC(=O)[C@H](C)N)C(=O)N[C@@H](Cc1c[nH]c2ccccc12)C(=O)N[C@@H](CC(C)C)C(=O)N[C@@H](CCCCN)C(=O)N[C@@H](C)C(=O)N[C@@H](C)C(=O)N[C@@H](CCCCN)C(=O)N[C@@H](CC(C)C)C(=O)N[C@@H](Cc1c[nH]c2ccccc12)C(=O)N[C@@H](CC(C)C)C(=O)N[C@@H](CCCCN)C(=O)N[C@@H](C)C(N)=O [AKLWLKAAKLWLKA]
- MIC [1]: 16 µM (≈ 26.2 µg/mL)

SMILES: CC[C@H](C)[C@H](NC(=O)[C@H](CCCN=C(N)N)NC(=O)[C@H](CCC(N)=O)NC(=O)[C@@H](NC(=O)[C@@H](NC(=O)[C@H](CCCN=C(N)N)NC(=O)[C@H](C)N)[C@@H](C)CC)C(C)C)C(=O)N[C@@H](CCCCN)C(=O)N[C@@H](CC(=O)O)C(=O)N[C@@H](Cc1ccccc1)C(=O)N[C@@H](CC(C)C)C(=O)N[C@@H](CCCN=C(N)N)C(=O)O [ARIVQRIKDFLR]
- MIC [2]: 40 µM (≈ 60.6 µg/mL)
- MIC [3]: 40 µM (≈ 60.6 µg/mL)
- MIC [4]: ≥ 40 µM
- MIC [5]: 40 µM (≈ 60.6 µg/mL)

SMILES: CC(C)C[C@H](NC(=O)[C@H](CCCCN)NC(=O)CN)C(=O)N[C@@H](Cc1c[nH]c2ccccc12)C(=O)N[C@@H](CC(C)C)C(=O)N[C@@H](CCCCN)C(=O)NCC(=O)NCC(=O)N[C@@H](CCCCN)C(=O)N[C@@H](CC(C)C)C(=O)N[C@@H](Cc1c[nH]c2ccccc12)C(=O)N[C@@H](CC(C)C)C(=O)N[C@@H](CCCCN)C(=O)NCC(=O)NCC(=O)N[C@@H](CCCCN)C(=O)N[C@@H](CC(C)C)C(=O)N[C@@H](Cc1c[nH]c2ccccc12)C(=O)N[C@@H](CC(C)C)C(=O)N[C@@H](CCCCN)C(=O)NCC(N)=O [GKLWLKGGKLWLKGGKLWLKG]
- MIC [1]: 32 µM (≈ 75.7 µg/mL)

SMILES: CC[C@H](C)[C@H](NC(=O)[C@H](CO)NC(=O)[C@H](C)NC(=O)[C@@H]1CCCN1C(=O)[C@H](CC(C)C)NC(=O)CN)C(=O)N[C@@H](CO)C(=O)N[C@@H](Cc1c[nH]c2ccccc12)C(=O)N[C@H](C(=O)N[C@@H](CCCCN)C(=O)N[C@@H](CCCN=C(N)N)C(=O)N[C@@H](CCCCN)C(=O)N[C@@H](CCCN=C(N)N)C(=O)N[C@@H](CCC(N)=O)C(=O)N[C@@H](CCC(N)=O)C(N)=O)[C@@H](C)CC [GLPASISWIKRKRQQ]
- MIC [6]: > 141 µM
- MIC [7]: 17.6 µM (≈ 31.2 µg/mL)
- MIC [8]: 141 µM (≈ 250 µg/mL)

SMILES: CC[C@H](C)[C@H](NC(=O)[C@@H](NC(=O)[C@@H]1CCCN1C(=O)[C@@H](NC(=O)[C@@H]1CCCN1C(=O)[C@H](CCCCN)NC(=O)[C@H](CCCCN)NC(=O)[C@H](CO)NC(=O)CN)C(C)C)[C@@H](C)CC)C(=O)N[C@@H](Cc1ccc(O)cc1)C(=O)N[C@H]1CSSC[C@@H](C(=O)N[C@@H](CCC(N)=O)C(=O)N[C@@H](CCCN=C(N)N)C(=O)N[C@@H](CCSC)C(=O)O)NC(=O)[C@H](CCCCN)NC(=O)CNC(=O)[C@H]([C@@H](C)O)NC(=O)[C@H](CCCN=C(N)N)NC(=O)[C@H](CCCN=C(N)N)NC(=O)[C@H](CCC(N)=O)NC1=O [GSKKPVPIIYCQRRTGKCQRM]
- MIC [5]: 1.63 µM (≈ 4 µg/mL)
- MIC [9]: 3.27 µM (≈ 7.99 µg/mL)

SMILES: CC[C@H](C)[C@H](N)C(=O)N[C@@H](CC(N)=O)C(=O)N[C@@H](Cc1c[nH]c2ccccc12)C(=O)N[C@@H](CCCCN)C(=O)N[C@@H](CCCCN)C(=O)N[C@H](C(=O)N[C@@H](Cc1ccccc1)C(=O)N[C@@H](CCC(N)=O)C(=O)N[C@@H](CCCCN)C(=O)N[C@H](C(=O)N[C@@H](CCCCN)C(=O)N[C@@H](CC(N)=O)C(=O)N[C@@H](CC(C)C)C(=O)N[C@H](C(N)=O)C(C)C)C(C)C)[C@@H](C)CC [INWKKIFQKVKNLV]
- MIC [6]: 8 µM (≈ 14.1 µg/mL)
- MIC [7]: ≥ 45 µM

SMILES: CC[C@H](C)[C@H](N)C(=O)N[C@@H](CC(N)=O)C(=O)N[C@@H](Cc1c[nH]c2ccccc12)C(=O)N[C@@H](CCCCN)C(=O)N[C@@H](CCCCN)C(=O)N[C@@H](CC(C)C)C(=O)NCC(=O)N[C@@H](CCCCN)C(=O)N[C@@H](CCCCN)C(=O)N[C@H](C(=O)N[C@@H](CC(C)C)C(=O)NCC(=O)N[C@@H](C)C(=O)N[C@@H](CC(C)C)C(N)=O)[C@@H](C)CC [INWKKLGKKILGAL]
- MIC [6]: 43 µM (≈ 68 µg/mL)
- MIC [7]: 15.5 µM (≈ 24.5 µg/mL)

SMILES: CC[C@H](C)[C@H](N)C(=O)N[C@@H](CC(N)=O)C(=O)N[C@@H](Cc1c[nH]c2ccccc12)C(=O)N[C@@H](CC(C)C)C(=O)N[C@@H](CCCCN)C(=O)N[C@@H](CC(C)C)C(=O)NCC(=O)N[C@@H](CCCCN)C(=O)N[C@@H](CCCCN)C(=O)N[C@@H](CCSC)C(=O)N[C@@H](CCSC)C(=O)N[C@@H](CO)C(=O)N[C@@H](C)C(=O)N[C@@H](CC(C)C)C(=O)O [INWLKLGKKMMSAL]
- MIC [6]: 100 µM (≈ 163 µg/mL)
- MIC [7]: 22.5 µM (≈ 36.7 µg/mL)

SMILES: CC[C@H](C)[C@H](N)C(=O)N[C@@H](Cc1c[nH]c2ccccc12)C(=O)N[C@@H](CCCN=C(N)N)C(=O)N[C@H](C(=O)N[C@@H](Cc1ccccc1)C(=O)N[C@@H](CCCN=C(N)N)C(=O)N[C@@H](CCCN=C(N)N)C(=O)N[C@H](C(=O)N[C@@H](Cc1ccccc1)C(=O)N[C@@H](CCCN=C(N)N)C(=O)N[C@H](C(=O)N[C@@H](Cc1ccccc1)C(=O)N[C@H](C(=O)N[C@@H](CCCN=C(N)N)C(=O)N[C@@H](Cc1ccccc1)C(N)=O)[C@@H](C)CC)[C@@H](C)CC)[C@@H](C)CC)[C@@H](C)CC [IWRIFRRIFRIFIRF]
- MIC [2]: 8 µM (≈ 17.1 µg/mL)
- MIC [3]: 16 µM (≈ 34.2 µg/mL)
- MIC [5]: 16 µM (≈ 34.2 µg/mL)
- MIC [10]: 4 µM (≈ 8.55 µg/mL)

SMILES: CC[C@H](C)[C@H](NC(=O)[C@H](CO)NC(=O)[C@H](C)NC(=O)[C@@H](NC(=O)[C@@H](N)CCCCN)[C@@H](C)CC)C(=O)NCC(=O)N[C@@H](CCCCN)C(=O)N[C@@H](CCC(=O)O)C(=O)N[C@H](C(=O)N[C@@H](CC(C)C)C(=O)N[C@@H](CCCCN)C(=O)N[C@@H](C)C(=O)N[C@@H](CC(C)C)C(N)=O)C(C)C [KIASIGKEVLKAL]
- MIC [6]: 100 µM (≈ 137 µg/mL)
- MIC [7]: ≥ 100 µM

SMILES: CC[C@H](C)[C@H](NC(=O)[C@H](C)NC(=O)[C@H](CCC(N)=O)NC(=O)[C@@H](NC(=O)[C@@H](NC(=O)[C@H](CCCN=C(N)N)NC(=O)[C@@H](N)CCCCN)[C@@H](C)CC)C(C)C)C(=O)N[C@@H](CCCCN)C(=O)N[C@@H](CC(=O)O)C(=O)N[C@@H](Cc1ccccc1)C(=O)N[C@@H](CC(C)C)C(=O)N[C@@H](CCCN=C(N)N)C(=O)O [KRIVQAIKDFLR]
- MIC [2]: 40 µM (≈ 59.5 µg/mL)
- MIC [3]: 40 µM (≈ 59.5 µg/mL)
- MIC [4]: ≥ 40 µM
- MIC [5]: 40 µM (≈ 59.5 µg/mL)

SMILES: CC[C@H](C)[C@H](NC(=O)[C@@H](NC(=O)[C@@H](NC(=O)[C@@H]1CCCN1C(=O)[C@H](Cc1c[nH]c2ccccc12)NC(=O)[C@H](Cc1ccccc1)NC(=O)[C@H](CCCN=C(N)N)NC(=O)[C@H](CCCCN)NC(=O)[C@@H](NC(=O)[C@@H](N)CCCN=C(N)N)[C@@H](C)CC)C(C)C)C(C)C)C(=O)N[C@@H](CCCN=C(N)N)C(=O)N[C@H](C(=O)N[C@H](C(=O)N[C@H](C(=O)N[C@@H](C)C(=O)NCC(=O)N[C@@H](Cc1ccc(O)cc1)C(=O)N[C@@H](CC(N)=O)C(=O)N[C@@H](CC(C)C)C(=O)N[C@@H](Cc1ccc(O)cc1)C(=O)N[C@@H](CCCN=C(N)N)C(=O)N[C@@H](C)C(=O)O)C(C)C)C(C)C)[C@@H](C)O [RIKRFWPVVIRTVVAGYNLYRA]
- MIC [11]: 1.75 µM (≈ 4.69 µg/mL)
- MIC [12]: 28 µM (≈ 75 µg/mL)
- MIC [5]: 1.75 µM (≈ 4.69 µg/mL)

SMILES: CC[C@H](C)[C@H](NC(=O)[C@H](CCCN=C(N)N)NC(=O)[C@H](CCCN=C(N)N)NC(=O)[C@@H]1CCCN1C(=O)[C@H](CCCN=C(N)N)NC(=O)[C@H](CCCN=C(N)N)NC(=O)[C@@H]1CCCN1C(=O)[C@H](CCCN=C(N)N)NC(=O)[C@@H]1CCCN1C(=O)[C@H](CC(C)C)NC(=O)[C@H](Cc1ccc(O)cc1)NC(=O)[C@@H]1CCCN1C(=O)[C@@H]1CCCN1C(=O)[C@H](CCCCN)NC(=O)[C@H](CC(=O)O)NC(=O)[C@@H](N)C(C)C)C(=O)N[C@@H](Cc1ccc(O)cc1)C(=O)N[C@@H](CC(N)=O)C(=O)N[C@@H](CCCN=C(N)N)C(N)=O [VDKPPYLPRPRRPRRIYNR]
- MIC [13]: 52.2 µM (≈ 128 µg/mL)
- MIC [12]: 13.1 µM (≈ 32 µg/mL)
- MIC [14]: 1.02 µM (≈ 2.5 µg/mL)

SMILES: CC[C@H](C)[C@H](NC(=O)[C@H](CCCN=C(N)N)NC(=O)[C@H](CCCN=C(N)N)NC(=O)[C@@H]1CCCN1C(=O)[C@H](Cc1ccc(O)cc1)NC(=O)[C@H](CCCN=C(N)N)NC(=O)[C@@H]1CCCN1C(=O)[C@H](CCCN=C(N)N)NC(=O)[C@@H]1CCCN1C(=O)[C@H](CC(C)C)NC(=O)[C@H](Cc1ccc(O)cc1)NC(=O)[C@@H]1CCCN1C(=O)[C@@H]1CCCN1C(=O)[C@H](CCCCN)NC(=O)[C@H](CC(=O)O)NC(=O)[C@@H](N)C(C)C)C(=O)N[C@@H](Cc1ccc(O)cc1)C(=O)N[C@@H](CC(N)=O)C(=O)N[C@@H](CCCN=C(N)N)C(N)=O [VDKPPYLPRPRYPRRIYNR]
- MIC [13]: 52.1 µM (≈ 128 µg/mL)
- MIC [12]: 13 µM (≈ 32 µg/mL)
- MIC [14]: 2.04 µM (≈ 5 µg/mL)

SMILES: CC(C)C[C@H](NC(=O)[C@H](Cc1ccc(O)cc1)NC(=O)[C@@H]1CCCN1C(=O)[C@@H]1CCCN1C(=O)[C@H](CCCCN)NC(=O)[C@H](CCCN=C(N)N)NC(=O)[C@@H](N)C(C)C)C(=O)N1CCC[C@H]1C(=O)N[C@@H](CCCN=C(N)N)C(=O)N1CCC[C@H]1C(=O)N[C@@H](CCCN=C(N)N)C(=O)N[C@@H](Cc1c[nH]c2ccccc12)C(=O)N1CCC[C@H]1C(=O)N[C@@H](CCCN=C(N)N)C(=O)N[C@@H](CCCN=C(N)N)C(=O)N[C@@H](Cc1ccccc1)C(=O)N[C@@H](Cc1ccc(O)cc1)C(=O)N[C@@H](CC(N)=O)C(=O)N[C@@H](CCCN=C(N)N)C(N)=O [VRKPPYLPRPRWPRRFYNR]
- MIC [13]: 3.13 µM (≈ 8 µg/mL)
- MIC [12]: 0.391 µM (≈ 1 µg/mL)
- MIC [14]: 0.979 µM (≈ 2.5 µg/mL)
